Measured values from patent US6518423B1, “Benzopiperidine derivatives” (Eisai Co., Ltd., priority 1996, dated 2003).

Row | Structure (SMILES) | melting point
1 | Cc1nccn1Cc1ccc2c(c1)Nc1nccnc1S2 | 244 to 246 °C
2 | CCc1nccn1Cc1ccc2c(c1)Nc1nccnc1S2 | 230 to 231 °C
3 | FC(F)(F)c1nccn1Cc1ccc2c(c1)Nc1nccnc1S2 | 231 to 233 °C
4 | c1ccc(-c2cn(Cc3ccc4c(c3)Nc3nccnc3S4)cn2)cc1 | 216 to 218 °C
5 | N#Cc1ccc(-c2cn(Cc3ccc4c(c3)Nc3nccnc3S4)cn2)cc1 | 262 to 264 °C
6 | O=C(O)c1ccc(Cc2nccn2Cc2ccc3c(c2)Nc2nccnc2S3)cc1 | 185 to 188 °C
7 | O=C(O)c1ccc(C(=O)c2nccn2Cc2ccc3c(c2)Nc2nccnc2S3)cc1 | 242 to 246 °C
8 | Cc1ncn(Cc2ccc3c(c2)Nc2nccnc2S3)c1C(=O)O | 235 °C (dec.)
9 | C/C(=C\c1ncn(Cc2ccc3c(c2)Nc2nccnc2S3)c1C)C(=O)O | > 290 °C
10 | COC(C)(C)CC/C(=C\c1ncn(Cc2ccc3c(c2)Nc2nccnc2S3)c1C)C(=O)O | 202 to 204 °C
11 | CC/C(=C\c1c(C)ncn1Cc1ccc2c(c1)Nc1nccnc1S2)C(=O)O | 172 °C
12 | C/C(O)=C(\C#N)C(=O)Nc1ccc(-c2cn(Cc3ccc4c(c3)Nc3nccnc3S4)cn2)cc1 | 259 to 261 °C
13 | OC(c1ccccn1)c1nccn1Cc1ccc2c(c1)Nc1nccnc1S2 (stereo not drawn) | 95 to 98 °C
14 | O=C(O)c1ccc(C(O)c2nccn2Cc2ccc3c(c2)Nc2nccnc2S3)cc1 (stereo not drawn) | 240 to 241 °C
15 | Cc1ncn(Cc2ccc3c(c2)Nc2nccnc2S3)c1C(C)(C)O | 199 to 202 °C
16 | CC1C[C@@H](C)C2CN(Cc3ccc4c(c3)Nc3nccnc3S4)CC1C21CC(CC(=O)O)C1 (stereo partly drawn) | 205 to 206 °C
17 | O=C(O)C1CC2(C1)C1CCCC2CN(Cc2ccc3c(c2)Nc2nccnc2S3)C1 (stereo not drawn) | 98 to 101 °C
18 | c1cc(CCc2ccc3c(c2)Nc2nccnc2S3)ccn1 | 179 to 183 °C
19 | COc1ccc(C(O)c2ccc3c(c2)Nc2nccnc2S3)cc1 (stereo not drawn) | 84 to 86 °C
20 | CC(c1cccnc1)c1ccc2c(c1)Nc1nccnc1S2 (stereo not drawn) | 180 to 181 °C
21 | OC(CCc1ccccc1)c1ccc2c(c1)Nc1nccnc1S2 (stereo not drawn) | 156 to 158 °C
22 | CN(Cc1ccc(C(=O)O)cc1)Cc1ccc2c(c1)Nc1nccnc1S2 | 241 to 244 °C
23 | O=C(O)c1ccc(CNCc2ccc3c(c2)Nc2nccnc2S3)cc1 | 245 to 248 °C
24 | CC(C(=O)O)c1ccc(NCc2ccc3c(c2)Nc2nccnc2S3)cc1.Cl (stereo not drawn) | 228 to 233 °C
25 | CCNC(=O)c1ccc2c(c1)Nc1nccnc1S2 | 274 to 275 °C
26 | CCCNC(=O)Cc1ccc2c(c1)Nc1nccnc1S2 | 212 °C (dec.)

Row | Structure (SMILES) | melting point
27 | O=C(Nc1ccccc1)OCc1ccc2c(c1)Nc1nccnc1S2 | 237 to 240 °C
28 | c1ccc(COCc2ccc3c(c2)Nc2nccnc2S3)cc1 | 118 to 120 °C
29 | Nc1ncnc2c1ncn2Cc1ccc2c(c1)Nc1nccnc1S2 | 290 °C
30 | O=C(O)C1CCN(c2ncnc3c2ncn3Cc2ccc3c(c2)Nc2nccnc2S3)CC1 | 238 to 240 °C
31 | c1ccc(CN2CCN(c3ncnc4c3ncn4Cc3ccc4c(c3)Nc3nccnc3S4)CC2)cc1 | 213 to 214 °C
32 | CN(C)c1nc(N(C)C)c2ncn(Cc3ccc4c(c3)Nc3nccnc3S4)c2n1 | 239 to 240 °C
33 | CCc1ncnc2c1ncn2Cc1ccc2c(c1)Nc1nccnc1S2 | 215 to 217 °C
34 | CC(=O)c1ncnc2ncn(Cc3ccc4c(c3)Nc3nccnc3S4)c12 | 266 to 268 °C
35 | CC(O)c1ncnc2ncn(Cc3ccc4c(c3)Nc3nccnc3S4)c12 (stereo not drawn) | 205 to 208 °C
36 | CC(C)(O)c1ncnc2ncn(Cc3ccc4c(c3)Nc3nccnc3S4)c12 | 268 to 271 °C
37 | CC(C)(O)c1ncnc2c1ncn2Cc1ccc2c(c1)Nc1nccnc1O2 | 143 to 145 °C
38 | CC(O)c1ncnc2c1ncn2Cc1ccc2c(c1)Nc1nccnc1S2 (stereo not drawn) | 210 to 212 °C
39 | Cl.N=C(N)c1ccc2c(c1)Nc1nccnc1S2 | > 280 °C
40 | Cl.N=C(N)Cc1ccc2c(c1)Nc1nccnc1S2 | > 280 °C
41 | Cl.N=C(Cc1ccc2c(c1)Nc1nccnc1S2)Nc1ccccc1 | 245 to 249 °C (dec.)
42 | N/C(Cc1ccc2c(c1)Nc1nccnc1S2)=N\S(=O)(=O)C(F)(F)F | 200 to 202 °C
43 | N/C(Cc1ccc2c(c1)Nc1nccnc1S2)=N\S(=O)(=O)c1ccccc1 | 206 to 207 °C
44 | CN1CCCN=C1Cc1ccc2c(c1)Nc1nccnc1S2.Cl | > 280 °C
45 | Cl.N=C(N)NCc1ccc2c(c1)Nc1nccnc1S2 | 279 to 282 °C
46 | Cl.N=C(N)c1ccnc2c1Sc1ccccc1N2 | > 280 °C
47 | CC(=O)NCCC1CCN(Cc2ccc3c(c2)Nc2nccnc2S3)CC1 | 194 to 196 °C
48 | CS(=O)(=O)N1CCC(NCc2ccc3c(c2)Nc2nccnc2S3)CC1 | 219 to 221 °C
49 | COC1CCN(Cc2ccc3c(c2)Nc2nccnc2S3)CC1 | 172 to 174 °C
50 | NC(=O)C1CCN(Cc2ccc3c(c2)Nc2nccnc2S3)CC1 | 225 to 228 °C
51 | CC1CCCC(C)N1Cc1ccc2c(c1)Nc1nccnc1S2 (stereo not drawn) | 168 to 172 °C
52 | O=C1NC(=O)C2(CCN(Cc3ccc4c(c3)Nc3nccnc3S4)CC2)N1 | > 275 °C

Row | Structure (SMILES) | melting point
53 | c1ccc2c(c1)CN(Cc1ccc3c(c1)Nc1nccnc1S3)C2 | 219 to 220 °C
54 | CNS(=O)(=O)NCC1CN(Cc2ccc3c(c2)Nc2nccnc2S3)C1 | 173 to 176 °C
55 | OCC1(O)CCN(Cc2ccc3c(c2)Nc2nccnc2S3)CC1 | 170 to 173 °C
56 | CCC/C(=N\OCC(=O)O)C1CCN(Cc2ccc3c(c2)Nc2nccnc2S3)CC1 | 193 to 195 °C
57 | O=C(Cc1ccc2c(c1)Nc1nccnc1S2)NCCCN1CCC(C(=O)O)CC1 | 143 °C (dec.)
58 | O=C(O)CC(=O)N1CCC(NCc2ccc3c(c2)Nc2nccnc2S3)CC1 | 167 to 170 °C
59 | CC(CCC1CCN(Cc2ccc3c(c2)Nc2ncncc2S3)CC1)C(=O)O (stereo not drawn) | 219 to 220 °C
60 | CC(CCC1CCN(CCCc2ccc3c(c2)Nc2nccnc2S3)CC1)C(=O)O (stereo not drawn) | 235 to 238 °C
61 | O=C(O)COc1ccc(C2CCN(Cc3ccc4c(c3)Nc3nccnc3S4)CC2)cc1 | 258 to 262 °C
62 | O=C(O)Cc1cccc(C2CCN(Cc3ccc4c(c3)Nc3nccnc3S4)CC2)c1 | 130 to 132 °C
63 | COc1cc(C2CCN(Cc3ccc4c(c3)Nc3nccnc3S4)CC2)cc(CC(=O)O)c1OC | 138 to 140 °C
64 | CC(C)(CC(=O)O)CC1CCN(Cc2ccc3c(c2)Nc2nccnc2S3)CC1 | 230 to 232 °C
65 | CC(CCC1CCN(Cc2ccc3c(c2)Nc2ccncc2S3)CC1)C(=O)O (stereo not drawn) | 210 to 215 °C
66 | CC(C(=O)O)C1CC2(CCN(Cc3ccc4c(c3)Nc3nccnc3S4)CC2)C1 (stereo not drawn) | 169 to 172 °C
67 | CC1(CC(=O)O)CC2(CCN(Cc3ccc4c(c3)Nc3nccnc3S4)CC2)C1 | 149 to 151 °C
68 | CCCCC1(CC(=O)O)CC2(CCN(Cc3ccc4c(c3)Nc3nccnc3S4)CC2)C1 | 133 to 135 °C
69 | O=C(O)CNC1CCN(Cc2ccc3c(c2)Nc2nccnc2S3)CC1 | 206 to 208 °C
70 | O=C(O)C(F)=C1CCN(Cc2ccc3c(c2)Nc2nccnc2S3)CC1 | 167 to 173 °C
71 | O=C(O)C#CC1CCN(Cc2ccc3c(c2)Nc2nccnc2S3)CC1 | 155 to 156 °C
72 | O=C(O)CC1=CCN(Cc2ccc3c(c2)Nc2nccnc2S3)CC1 | 124 to 128 °C
73 | CS(=O)(=O)N1CCC(N(CC(=O)O)Cc2ccc3c(c2)Nc2nccnc2S3)CC1 | 185 to 189 °C
74 | O=C(O)COC1CCN(Cc2ccc3c(c2)Nc2nccnc2S3)CC1 | 204 to 207 °C
75 | CCOC(=O)c1ccc2c(c1)Nc1nccnc1N2 | > 275 °C
76 | CN1c2ccc(C#N)cc2Nc2nccnc21 | 274 to 275 °C
77 | O=C(O)c1ccc(CN2c3ccccc3Nc3nccnc32)cc1 | 253 to 255 °C
78 | COC(=O)CCCN1c2ccccc2Nc2nccnc21 | 189 to 190 °C

Row | Structure (SMILES) | melting point
79 | O=C(O)CCCN1c2ccccc2Nc2nccnc21 | 273 to 274 °C
80 | CN1c2ccc(C=O)cc2Nc2nccnc21 | 215 to 219 °C
81 | CN1c2ccc(-c3cnco3)cc2Nc2nccnc21 | 268 to 269 °C
82 | CN1c2ccc(C(O)c3cccs3)cc2Nc2nccnc21 (stereo not drawn) | > 275 °C
83 | CN1c2ccc(C(O)C#Cc3ccccc3)cc2Nc2nccnc21 (stereo not drawn) | 204 to 208 °C
84 | CN1c2ccc(C(O)c3nccn3S(=O)(=O)N(C)C)cc2Nc2nccnc21 (stereo not drawn) | 185 to 190 °C
85 | CN1c2ccc(C(O)c3nnc[nH]3)cc2Nc2nccnc21 (stereo not drawn) | > 275 °C
86 | CN1c2ccc(C(N)c3ccccn3)cc2Nc2nccnc21 (stereo not drawn) | > 275 °C
87 | CN(C)C(=O)C#Cc1ccc2c(c1)Nc1nccnc1N2C | 203 to 205 °C
88 | CN1c2ccc(C#Cc3ccccc3)cc2Nc2nccnc21 | 245 to 247 °C
89 | c1cc(NCc2ccc3c(c2)Nc2nccnc2S3)ccn1 | 194 to 196 °C
90 | c1cnc(NCc2ccc3c(c2)Nc2nccnc2S3)nc1 | 232 to 235 °C
91 | c1ccc2c(NCc3ccc4c(c3)Nc3nccnc3S4)nccc2c1 | 222 to 225 °C
92 | Cc1cc(C)nc(NCc2ccc3c(c2)Nc2nccnc2S3)c1 | 162 to 165 °C
93 | O=C(O)CCC1C2CCCC1CN(Cc1ccc3c(c1)Nc1nccnc1S3)C2 (stereo not drawn) | 223 to 225 °C
94 | CCc1cc(NCc2ccc3c(c2)Nc2nccnc2S3)ccn1 | 148 to 152 °C
95 | CN(C)c1ccc(NCc2ccc3c(c2)Nc2nccnc2S3)cn1 | 244 to 247 °C
96 | CCc1ccc(NCc2ccc3c(c2)Nc2nccnc2S3)cn1 | 202 to 204 °C
97 | CCOC(=O)C(C)(C)CCCCc1ccc(NCc2ccc3c(c2)Nc2nccnc2S3)cn1 | 160 to 164 °C
98 | OCCCCCCOc1ccc(NCc2ccc3c(c2)Nc2nccnc2S3)cn1 | 124 to 128 °C
99 | O=C(O)c1ccc(NCc2ccc3c(c2)Nc2nccnc2S3)nc1 | 215 to 220 °C
100 | CC(C)(CCCCc1ccc(NCc2ccc3c(c2)Nc2nccnc2S3)cn1)C(=O)O | 158 to 161 °C
101 | O=C(c1ccccc1)N(Cc1ccc2c(c1)Nc1nccnc1S2)c1cccnc1 | 178 to 182 °C
102 | CS(=O)(=O)N(Cc1ccc2c(c1)Nc1nccnc1S2)c1cccnc1 | 208 to 210 °C
